Where a name gives a salt, the structure may show the parent alone.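 Following 48 hours of exposure in 96-well plates, responses at five concentrations were used to interpolate endpoints linearly. The concentration for 50% growth inhibition is given as GI50.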 The source made the active and inactive calls. Rule as the data show it: active = GI50 up to about 1.1 µM and inactive = higher.

This note sets out measurements from ChEMBL document CHEMBL1201862, “PubChem BioAssay data set” (2004).

Test systems include Hs-578T; MDA-N; PC-3; T47D; MDA-MB-231; BT-549; 786-0; LXFL 529; RXF 631.
Test in all cases: NCI tumour cell line growth inhibition, 48 h

`COc1ccc(N2C(=O)C3c4[nH]c5cc(C)ccc5c4C4CCC(C(C)(C)C)CC4C3C2=O)cc1` (stereo not drawn): the GI50 in the test on Hs-578T is 3.08 µM (inactive); in the test with MDA-N, > 10 µM (inactive); in the test on PC-3, 5.24 µM (inactive); with T47D it was > 10 µM (inactive); in the test with MDA-MB-231, > 10 µM (inactive).
With `O=C(O)CN1CCCC(Cc2c[nH]c3ccccc23)C1` (stereo not drawn), the GI50 in the test on Hs-578T, in the test on MDA-N, with PC-3, in the test on MDA-MB-231 and in the test with BT-549 was > 100 µM (inactive) in each case.
Turning to `O=C(O)c1cccc2cccc(-c3c4ccc(=O)cc-4oc4cc(O)ccc34)c12`, the GI50 with Hs-578T was 93.1 µM (inactive); in the test on MDA-N, 71 µM (inactive); in the test on PC-3, > 100 µM (inactive); in the test with T47D, > 100 µM (inactive); in the test with MDA-MB-231, 81.1 µM (inactive); in the test on BT-549 it was > 100 µM (inactive).
For the compound `O=C1C[C@H](c2ccccc2)C2(C(=O)c3ccccc3C2=O)[C@@H](c2ccccc2)C1`, the GI50 is 17.1 µM (inactive) in the test with Hs-578T; 16.2 µM (inactive) in the test on MDA-N; 10.8 µM (inactive) in the test on PC-3; 43.1 µM (inactive) in the test on T47D; 20.7 µM (inactive) in the test on MDA-MB-231; 19.6 µM (inactive) with BT-549.
In the case of `CC1CC2C3CC(F)C4=CC(=O)C=CC4(C)C3(F)C(O)CC2(C)C1(O)C(=O)COC(=O)C(C)(C)C` (stereo not drawn), in the test on 786-0, the GI50 is 68.1 µM (inactive).
For `O=C1c2ccccc2C(=O)c2c1ccc1c2N=C(c2ccc(F)cc2)CC(c2ccc(Cl)c(Cl)c2)N1` (stereo not drawn), the GI50 in the test with LXFL 529 is 16 µM (inactive).
The same measure, in the same setting: the same measure for `NC(=O)Nc1cc(O)ccc1/N=N/c1ccc(S(=O)(=O)Nc2ccccn2)cc1`: > 100 µM (inactive).
The same measure, in the same setting: in the case of `CCC1C[N+]23CCc4c([nH]c5ccccc45)C2CC1CC3` (stereo not drawn) it was 33.8 µM (inactive).
With `Nc1ccc2cc3ccc(N)cc3nc2c1` [PROFLAVINE SULFATE], the GI50 in the test with Hs-578T is 2.57 µM (inactive); with MDA-N, 1.21 µM (inactive); in the test on T47D, 1.59 µM (inactive); in the test on LXFL 529, 0.953 µM (active); in the test with RXF 631, 1.12 µM (inactive); in the test on MDA-MB-231 it was 1.62 µM (inactive). Also, the GI50 in the test on BT-549 was 3.19 µM (inactive).
